Here are results for two molecules from patent publication US8691749B2, “Peptide and use thereof” (Ensoltek Co., Ltd., priority 2009, dated 2014).

Assay [1] concerns TGF-beta1 signaling. The experiment in a line: TGF-beta1 signaling inhibition: phosphorylated Smad2 Western blot in HepG2 cells. Format: cell-based. The procedure: Inhibition of TGF-beta1 signaling by the peptide of Example 1 was confirmed in accordance with the following experimental method.
Treatment of HepG2 cells with TGF-beta1 is known to result in apoptosis, during which Smad2 is first phosphorylated (Park T J. et al., Mol. Carcinog. 47:784-796, 2008; and Gressner A M. et al., J Hepatol. 26:1079-1092, 1997). Using these properties, the experiment was carried out as follows. 1×10^6 of HepG2 cells (ATCC; American Type Culture Collection) were seeded in a 60 mm dish, stabilized overnight, and then depleted of nutrients by serum-free media (SFM) for 24 hours. Prior to treatment of the cells with the peptide of Example 1, 5 ng/mL of TGF-beta1 (PromoKine, Germany) and the above peptide (1, 5, and 25 μM) were subjected to pre-incubation at 37° C. for 1 hour. Further, DMSO (2 μl/mL) was also pre-incubated with TGF-beta1 (5 ng/mL) at 37° C. for 1 hour. Then, the cells were treated with the pre-incubated solutions for 30 minutes, followed by extraction of proteins. In addition, the cells were previously treated only with […] of SB431542 (TOCRIS, USA), an inhibitor of the TGF-beta receptor, followed by incubation for 1 hour, and then treated with TGF-beta1 (5 ng/mL) for 30 minutes. Then, the cells were homogenized on ice in Radioimmunoprecipitation (RIPA) Lysis Buffer (Millipore) {50 mM Tris-HCl (pH 7.4), 150 mM NaCl, 0.25% deoxycholic acid, 1% NP-40, 1 mM ethylenediaminetetraacetic acid (EDTA), 1 mM phenylmethylsulfonyl fluoride (PMSF), 40 mM NaF, 1 mM Na3VO4, 1 mM dithiothreitol (DTT)}. […]
FIG. 3 illustrates the Western blot results (Lane 1: non-treated HepG2 cells, Lane 2: TGF-beta1-treated cells, Lane 3: TGF-beta1/SB431542-treated cells, Lanes 4, 5 and 6: cells treated with 1, 5, and 25 μM of peptide/TGF-beta1, respectively, and Lane 7: TGF-beta1/DMSO-treated cells). […] The bottom of FIG. 3 illustrates the Coomassie Blue staining results of the membrane used in Western blot, showing that the quantity of the protein is the same in all the lanes.

For assay [2], the system named is aggrecan gene. The experiment in a line: Aggrecan gene expression in disc tissues by real-time PCR in disc degeneration model. The class given is in vivo, rabbits (New Zealand white rabbits). The following applies: Week 4 after first administration; 0.5 mM/animal intradiscal at Weeks 0 and 2. The procedure: Real-time PCR was carried out to examine a gene expression level of aggrecan, which is a representative extracellular matrix component in disc tissues.
In the same manner as in Example 2-1, animals were prepared and divided into two groups, to each of which DMSO and the peptide of Example 1 (0.5 mM/animal) were administered by local intradiscal injection. The administration point for each group was 4 weeks after the induction of disc degeneration and 2 weeks thereafter. After the second administration, the animals were raised for 2, 4, and 8 weeks, respectively. […]
The quantity of mRNA of GAPDH and aggrecan was examined by a Prism 7900HT (ABI) using PowerSYBR Green PCR Master Mix (Applied Biosystems Inc.). […] GAPDH was selected as a reference gene, and a CT value difference (ΔCT) between the reference gene and the aggrecan gene was calculated. In addition, a CT value difference (ΔΔCT) between the normal disc and the Example 1 peptide-administered disc (or DMSO-administered disc) was calculated. Then, 2^(−ΔΔCT) was calculated and expressed in terms of percentage relative to the normal disc value.
Background: Real-time PCR tracks product formation cycle by cycle.

Assay [3] has as its system degenerated disc tissue. The experiment in a line: Disc regeneration effects by disc tissue staining (H&E) in disc degeneration model. The class given is in vivo, rabbits (New Zealand white rabbits). Conditions: 0.5 mM/animal, local intradiscal injection twice. The procedure: 30 rabbits (New Zealand white rabbits; Orient Bio Inc.), weighing 3 to 3.5 kg, were prepared irrespective of sex.
The rabbits were anesthetized by intramuscular injection of 5 mg/kg of xylazine (Rompun, Bayer) and 35 mg/kg of ketamine hydrochloride (Ketalar, Pfizer). Prior to the procedure, lateral plain X-ray using a fluoroscopic apparatus (Model VPX-200; Toshiba Co.) was obtained to establish the pre-injection baseline height of intervertebral disc. The baseline control refers to a standard for measurement of a disc space. After the rabbits were positioned on the laboratory table, L23, L34, L45, and L56 disc levels were confirmed by the machine, and annulus fibrosus was stabbed into the posterolateral side of the disc at L23, L45, and L56 levels, using an 18G needle. After recovery from the anesthesia, the animals were housed in a cage under the following breeding conditions: temperature 20-25° C., humidity 10%-50%, and Light/Dark (L/D) cycle: (light from 08:00 a.m. to 20:00 p.m.). All animals were fed once a day. X-ray photographs were taken 2 and 4 weeks after the initial annular puncture. The X-ray was taken after anesthesia. Based on the results of X-ray, an intervertebral disc height (IVD height) was measured. From the measurement results, disc degeneration degree was quantified by a modification of the method disclosed in Lu et al., Spine. 22:1828-34, 1997.
Thereafter, experiments were carried out for two separate groups, DMSO-administered control group and Example 1 peptide-administered experimental group, and the rabbits were euthanized by injection of ketamine (25 mg/kg) and sodium pentobarbital (1.2 g/kg, Nembutal, Ovation) according to the planned schedule, followed by extraction of the disc for histological and biochemical analysis, respectively.
Disc-degenerated rabbits from Section 2-1 were divided into two groups. Each group was given dimethyl sulfoxide (DMSO) and the peptide of Example 1 (0.5 mM/animal) by local intradiscal injection twice. The administration point for each group was 4 weeks after the induction of disc degeneration and 2 weeks thereafter. After the second administration, the animals were raised for 2, 4, and 8 weeks, respectively. At Weeks 4, 6, and 10 after the first administration of each of the Example 1 peptide and DMSO, the corresponding respective disc tissues were extracted and fixed in formalin. The fixed disc tissues were embedded in paraffin, and serial sections having a thickness of […] along the sagittal plane were prepared. Of these sections, two mid-sagittal sections were stained with hematoxylin and eosin (H&E). For the comparison with the normal disc tissue, the disc was extracted, treated and stained from the rabbits with no induction of disc degeneration according to the same method described above. […]

For the molecule `NC(=O)c1ccc(-c2nc(-c3ccc4c(c3)OCO4)c(-c3ccccn3)[nH]2)cc1` [SB431542, reference compound], the “phosphorylation of Smad2” value in assay [1] (pre-treated with 1004 of SB431542 for 1 hour, then TGF-beta1 5 ng/mL for 30 minutes) is “complete inhibition of phosphorylation”.

On to LQVVYLH [Example 1], for which, in assay [1] (peptide 1, 5 and 25 μM pre-incubated with TGF-beta1 5 ng/mL for 1 hour, cells treated 30 minutes), the “phosphorylation degree of Smad2” value is “decreased in a dose-dependent manner”. The “extent of TGF-beta1 signaling inhibition” value in assay [1] (peptide 1, 5 and 25 μM, compared with SB431542) is reported as “does not completely inhibit TGF-beta1 signaling”. Moreover, the “aggrecan gene expression as compared to the DMSO-administered disc tissue” value in assay [2] is given as “increase in the aggrecan gene expression”. In assay [3] (Week 10), the “distinction between nucleus pulposus and annulus fibrosus” value is “discernible between the nucleus pulposus and the annulus fibrosus”; the “extracellular matrix components in disc tissue” value is reported as “abundance of extracellular matrix components”; the “size of disc as compared to the DMSO-administered disc tissue” value was “increased size of disc”. In addition, in assay [3] (Week 10, x400), the “staining of cell nuclei in the nucleus pulposus region” value is recorded as “vivid staining of the cell nuclei”.
